Laboratory results as given in patent publication US8853246B2 (Dow AgroSciences LLC, priority 2009, dated 2014).
Where two headings read alike, the source gives them in different places.

What was measured:
[1] = tested on: Green Peach Aphid (Myzus Persicae); assay: Insecticidal test for green peach aphid in foliar spray assay (col. MYZUPE); type: in vivo; conditions: for pest or weed control at 200 ppm: Myzus persicae, 72 h, read-out: MYZUPE 200 ppm (Corrected % Control, rating)
Procedure, shortened: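 Corrected % control derives from microscope counts of live aphids per plant, treated against diluent-only checks, 3 days after foliar spraying at ~25 °C and 40% RH. Test solution was 200 ppm in 0.025% aqueous Tween 20, applied to both leaf sides of infested cabbage seedlings, four pots each.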

[2] = tested on: Sweetpotato Whitefly-Crawler (Bemisia Tabaci); assay: Insecticidal test for sweetpotato whitefly-crawler in foliar spray assay (col. BEMITA); type: in vivo; conditions: for pest or weed control at 200 ppm: Bemisia tabaci, read-out: BEMITA 200 ppm (Corrected % Control, rating)
Procedure, shortened: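 Percent control, Abbott-corrected against diluent-sprayed plants, from microscope counts of live nymphs 8-9 days after treatment. Test solution at 200 ppm in 0.025% aqueous Tween 20 applied to both leaf sides of egg-infested cotton after a 5-6 day hatch period (82° F, 50% RH).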

Structure (SMILES) | pest or weed control at 200 ppm ([1]; Abbott's correction formula) [%] | pest or weed control at 200 ppm ([2]; Abbott's correction formula) [%] | pest or weed control at 200 ppm ([1]; green peach aphid) [%] | pest or weed control at 200 ppm ([2]; sweetpotato whitefly-crawler) [%] | also measured
CCN(C(=O)CC[S+](C)[O-])c1sc(-c2cncc(F)c2)nc1F (stereo not shown) [Compound 427] | 80 to 100 | 80 to 100 |  |  | 
Cc1nc(-c2cncc(F)c2)sc1N(C)C(=O)C1CCCNC1 (stereo not shown) [Compound 581] | < 80 | < 80 |  |  | 
CN(C(=O)C(F)(F)F)c1sc(-c2cccnc2)nc1-c1ccccc1 [Compound 4, 2,2,2-Trifluoro-N-methyl-N-(4-phenyl-2-pyridin-3-yl-thiazol-5-yl)-acetamide] |  |  | < 80 | < 80 | 
Cc1nc(-c2cccnc2)sc1N(C)C(=O)OC(C)(C)C(F)(F)F [Compound 492] | < 80 | 80 to 100 |  |  | 
COCC(C)OC(=O)N(C)c1sc(-c2cccnc2)nc1C (stereo not shown) [Compound 484] | < 80 | 80 to 100 |  |  | 
COc1cncc(-c2nc(Cl)c(N(C)C(=O)CCSC)s2)c1 [Compound 513] | < 80 | < 80 |  |  | 
Cc1nc(-c2cccnc2)sc1N(C)C(=O)c1cnco1 [Compound 343] |  |  |  |  | MYZUPE 200 ppm (Corrected % Control, rating) ([1]; green peach aphid): A (80-100); BEMITA 200 ppm (Corrected % Control, rating) ([2]; sweetpotato whitefly-crawler): B (Less than 80)
CCN(C(=O)c1ccccn1)c1sc(-c2cccnc2)nc1Cl [Compound 574] | 80 to 100 | < 80 |  |  | 
Cc1nc(-c2cncc(F)c2)sc1N(C)C(=O)C(C)C[S+](C)[O-] (stereo not shown) [Compound 86] |  |  | 80 to 100 | 80 to 100 | 
Cc1nc(-c2cccnc2)sc1N(CC(C)C)C(=O)OC(C)(C)C [Compound 14, Isobutyl-(4-methyl-2-pyridin-3-yl-thiazol-5-yl)-carbamic acid tert-butyl ester] |  |  | < 80 | 80 to 100 | 
CCN(C(=O)CC(C)SC)c1sc(-c2cccnc2)nc1Br (stereo not shown) [Compound 480] | 80 to 100 | 80 to 100 |  |  | 
CCN(C(=O)C(C)CSC)c1sc(-c2cccnc2)nc1-c1ccccc1 (stereo not shown) [Compound 62] |  |  | < 80 | < 80 | 
CSC(C)CC(=O)N(C)c1sc(-c2cncc(F)c2)nc1C (stereo not shown) [Compound 213] |  |  | 80 to 100 | 80 to 100 | 
CN(C(=O)C1CCCC1)c1sc(-c2cccnc2)nc1Cl [Compound 553] | < 80 | 80 to 100 |  |  | 
C/C=C/CN(C(=O)C(C)CSC)c1sc(-c2cccnc2)nc1C (stereo not shown) [Compound 466] | 80 to 100 | < 80 |  |  | 
CCOC(=O)C(C)C(=O)N(C)c1sc(-c2cccnc2)nc1C (stereo not shown) [Compound 232] |  |  | < 80 | 80 to 100 | 
CN(C(=O)OCc1ccc([N+](=O)[O-])o1)c1cnc(-c2cncc(F)c2)s1 [Compound 77, [2-(5-Fluoropyridin-3-yl)-thiazol-5-yl]-methyl-carbamic acid 5-nitro-furan-2-ylmethyl ester] |  |  | 80 to 100 | < 80 | 
CCN(C(=O)CCS(C)(=O)=O)c1sc(-c2cccnc2)nc1C [Compound 239] |  |  |  |  | MYZUPE 200 ppm (Corrected % Control, rating) ([1]; green peach aphid): A (80-100); BEMITA 200 ppm (Corrected % Control, rating) ([2]; sweetpotato whitefly-crawler): A (80-100)
CC(CC(=O)N(C)c1sc(-c2cccnc2)nc1Br)[S+](C)[O-] (stereo not shown) [Compound 504] | 80 to 100 | 80 to 100 |  |  | 
CC(=O)N1CCCC(C(=O)N(C)c2sc(-c3cccnc3)nc2C)C1 (stereo not shown) [Compound 412] |  |  | 80 to 100 | 80 to 100 | 
Cc1nc(-c2cncc(F)c2)sc1N(C)C(=O)CC[S+](C)[O-] (stereo not shown) [Compound 91] |  |  | 80 to 100 | 80 to 100 | 
CN(C(=O)CN(C)S(=O)(=O)/C=C/c1ccccc1)c1sc(-c2cccnc2)nc1Cl [Compound 437] | < 80 | < 80 |  |  | 
CSCC(C)C(=O)N(C(=O)OC(C)(C)C)c1sc(-c2cccnc2F)nc1C (stereo not shown) [Compound 154] |  |  | < 80 | < 80 | 
